The experiment has as its target Acetylcholinesterase (Homo sapiens, UniProt P22303). The experiment can be described thus: Inhibition of human AChE.

The record followed here is ChEMBL document CHEMBL3632542, “A computational view on the significance of E-ring in binding of (+)-arisugacin A to acetylcholinesterase” (Bioorg Med Chem Lett, 2015).

pIC50: −log10 of the molar value.

Sequence of Acetylcholinesterase (P22303 whole entry): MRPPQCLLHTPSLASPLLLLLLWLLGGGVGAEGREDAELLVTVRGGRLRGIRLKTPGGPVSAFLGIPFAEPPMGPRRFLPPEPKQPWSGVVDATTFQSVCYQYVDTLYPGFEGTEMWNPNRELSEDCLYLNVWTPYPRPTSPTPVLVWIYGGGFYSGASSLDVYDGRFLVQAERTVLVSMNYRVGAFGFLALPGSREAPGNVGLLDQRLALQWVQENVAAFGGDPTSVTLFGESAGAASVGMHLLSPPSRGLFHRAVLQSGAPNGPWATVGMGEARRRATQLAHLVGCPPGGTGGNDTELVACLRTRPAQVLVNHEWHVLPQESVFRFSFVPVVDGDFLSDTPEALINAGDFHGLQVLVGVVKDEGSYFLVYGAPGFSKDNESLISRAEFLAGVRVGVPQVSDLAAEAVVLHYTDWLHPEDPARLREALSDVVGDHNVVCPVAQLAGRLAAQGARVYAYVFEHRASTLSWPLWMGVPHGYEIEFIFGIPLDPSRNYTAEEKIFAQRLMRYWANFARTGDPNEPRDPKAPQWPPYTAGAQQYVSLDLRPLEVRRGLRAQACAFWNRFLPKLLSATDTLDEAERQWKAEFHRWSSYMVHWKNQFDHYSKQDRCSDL

Regarding `COc1ccc(-c2cc3c(c(=O)o2)C[C@H]2[C@@](C)(CC[C@@]4(O)C(C)(C)C(=O)CC[C@]24C)O3)cc1`, the pIC50 is 5.60.

In turn, `COc1ccc(-c2cc3c(c(=O)o2)C[C@]2(O)[C@@]4(C)CC[C@@H](OC(C)=O)C(C)(C)[C@]4(O)CC[C@@]2(C)O3)cc1` gave a pIC50 of 5.46.

With `COc1ccc(-c2cc3c(c(=O)o2)C[C@H]2[C@@](C)(CC[C@@]4(O)C(C)(C)[C@H](O)CC[C@]24C)O3)cc1`, the pIC50 is less than 4.00.

In turn, `COc1ccc(-c2cc3c(c(=O)o2)C[C@@H]2[C@@]4(C)CC[C@H](O)C(C)(C)[C@@H]4CC[C@@]2(C)O3)cc1` gave a pIC50 of less than 4.00.

The compound `COc1ccc(-c2cc3c(c(=O)o2)C[C@@H]2[C@@]4(C)CCC(=O)C(C)(C)[C@@H]4CC[C@@]2(C)O3)cc1` showed a pIC50 of less than 4.00.

`COc1ccc(-c2cc3c(c(=O)o2)C[C@]2(O)[C@@]4(C)[C@@H](O)C[C@@H](OC(C)=O)C(C)(C)[C@]4(O)CC[C@@]2(C)O3)cc1`: the pIC50 is less than 4.00.

For the compound `COc1cc(-c2cc3c(c(=O)o2)C[C@]2(O)[C@@]4(C)C(=O)C=CC(C)(C)[C@]4(O)CC[C@@]2(C)O3)cc(OC)c1O`, the pIC50 was 8.17.

Regarding `COc1cc(-c2cc3c(c(=O)o2)C[C@]2(O)[C@@]4(C)C(=O)C=CC(C)(C)[C@]4(O)CC[C@@]2(C)O3)cc(OC)c1OC` [TERRITREM B], the pIC50 was 8.12.

As a reminder, the pIC50 is the IC50 on a negative log10 scale, so that one unit is a factor of ten.
